Test results from patent publication US20160159773A1, “HETEROCYCLIC COMPOUND” (TAKEDA PHARMACEUTICAL COMPANY LIMITED, priority 2013, published 2016).
Where a name gives a salt, the structure may show the parent alone.

Molecular target: T1, Tyk2 (Homo sapiens, UniProt P29597)
T1 construct: purchased Invitrogen
Assay: Tyk2 enzyme inhibition test (LANCE method)
Assay type: biochemical
Conditions: test compound 1 μM; well without enzyme = 100% inhibition; read-out: Tyk2 enzyme inhibitory activity (%, 1 μM)
Protocol: Tyk2 Enzyme Inhibition Test
Tyk2 enzyme inhibitory activity of test compounds was measured by LANCE method (PerkinElmer). First, a test compound diluted with assay buffer (50 mM HEPES (pH=7.5), 10 mM MgCl2, 1 mM EGTA, 2 mM DTT, 0.01% Tween20, 0.01% BSA) was added to 384-well plate at 2 μL each. Then, a Tyk2 (Invitrogen) solution and a fluorescence-labeled peptide substrate (ULight-JAK1, PerkinElmer) solution diluted with assay buffer at 375 ng/mL and 300 nM, respectively were added at 2 μL each. Then, enzyme reaction was started by adding 2 μL each of ATP solution prepared with assay buffer at 30 μM. After the reaction at room temperature for 1 hr, Detection Buffer (PerkinElmer) prepared to be 20 mM EDTA, 4 nM europium-labeled anti-phosphotyrosine antibody (PerkinElmer) was added at 6 μL each. After standing at room temperature for 1 hr, fluorescence intensity (excitation wavelength 340 nm, fluorescence wavelength 665 nm, delay time 100 microsecond) was measured by a plate reader, Envision (PerkinElmer). The inhibitory activity of each compound was calculated as relative value where fluorescence intensity of a well without enzyme is considered as 100% inhibition.

T1 sequence (P29597 whole entry): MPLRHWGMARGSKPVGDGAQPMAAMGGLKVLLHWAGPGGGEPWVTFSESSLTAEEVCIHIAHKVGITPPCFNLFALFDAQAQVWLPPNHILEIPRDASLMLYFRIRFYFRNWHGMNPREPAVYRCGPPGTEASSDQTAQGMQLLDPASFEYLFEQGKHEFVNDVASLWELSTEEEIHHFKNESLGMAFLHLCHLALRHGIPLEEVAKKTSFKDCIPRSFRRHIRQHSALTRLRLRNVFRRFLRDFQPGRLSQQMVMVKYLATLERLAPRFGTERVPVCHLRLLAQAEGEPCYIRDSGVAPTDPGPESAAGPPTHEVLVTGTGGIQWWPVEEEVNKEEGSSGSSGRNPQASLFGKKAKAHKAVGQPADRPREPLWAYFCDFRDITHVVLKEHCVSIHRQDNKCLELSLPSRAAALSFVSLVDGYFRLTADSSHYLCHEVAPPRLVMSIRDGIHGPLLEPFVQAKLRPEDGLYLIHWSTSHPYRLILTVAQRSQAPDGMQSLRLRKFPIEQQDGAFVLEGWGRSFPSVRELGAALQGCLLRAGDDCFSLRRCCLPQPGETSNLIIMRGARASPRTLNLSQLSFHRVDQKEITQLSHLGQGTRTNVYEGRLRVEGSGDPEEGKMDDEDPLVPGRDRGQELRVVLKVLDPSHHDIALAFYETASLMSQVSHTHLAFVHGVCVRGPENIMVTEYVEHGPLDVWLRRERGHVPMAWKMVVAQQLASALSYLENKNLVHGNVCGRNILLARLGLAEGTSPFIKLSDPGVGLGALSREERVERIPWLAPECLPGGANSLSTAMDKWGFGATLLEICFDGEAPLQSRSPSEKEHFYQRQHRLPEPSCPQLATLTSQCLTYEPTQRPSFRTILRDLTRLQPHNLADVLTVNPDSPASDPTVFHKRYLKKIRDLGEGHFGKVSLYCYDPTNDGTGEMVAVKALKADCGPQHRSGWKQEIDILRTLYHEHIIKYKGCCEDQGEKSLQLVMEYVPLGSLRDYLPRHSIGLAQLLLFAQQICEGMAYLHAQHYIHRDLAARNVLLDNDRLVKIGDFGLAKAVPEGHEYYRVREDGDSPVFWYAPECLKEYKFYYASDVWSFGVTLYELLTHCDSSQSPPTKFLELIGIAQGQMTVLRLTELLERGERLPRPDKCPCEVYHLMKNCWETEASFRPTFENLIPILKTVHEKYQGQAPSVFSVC

inhibition at 1 µM [%] | SMILES
90 | CC(C)(CO)n1cc(Nc2cc(N3CCC(C#N)(C4CC4)C3=O)ccn2)cn1 (stereo not shown) [Example 129, 3-cyclopropyl-1-(2-((1-(1-hydroxy-2-methylpropan-2-yl)-1H-pyrazol-4-yl)amino)pyridin-4-yl)-2-oxopyrrolidine-3-carbonitrile]
106 | CNC(=O)c1cc(Nc2cc(N3C(=O)[C@](C#N)(C4CC4)C[C@H]3C)ccn2)nn1C [Example 136, 3-((4-((3S,5R)-3-cyano-3-cyclopropyl-5-methyl-2-oxopyrrolidin-1-yl)pyridin-2-yl)amino)-N,1-dimethyl-1H-pyrazole-5-carboxamide]
107 | C[C@@H]1C[C@@](C#N)(C2CC2)C(=O)N1c1ccnc(Nc2cc(C(N)=O)n(C)n2)c1 [Example 137, 3-((4-((3S,5R)-3-cyano-3-cyclopropyl-5-methyl-2-oxopyrrolidin-1-yl)pyridin-2-yl)amino)-1-methyl-1H-pyrazole-5-carboxamide]
102 | Cn1nc(Nc2cc(N3CC[C@@](C#N)(C4CC4)C3=O)ccn2)cc1C(N)=O [Example 138, 3-((4-((3S)-3-cyano-3-cyclopropyl-2-oxopyrrolidin-1-yl)pyridin-2-yl)amino)-1-methyl-1H-pyrazole-5-carboxamide]

More lines, now with the values behind:

SMILES | inhibition at 1 µM [%]
N#C[C@@]1(C2CC2)CCN(c2ccnc(Nc3ccc(N4CCOCC4)cn3)c2)C1=O [Example 1, (3S)-3-cyclopropyl-1-(2-((5-(morpholin-4-yl)pyridin-2-yl)amino)pyridin-4-yl)-2-oxopyrrolidine-3-carbonitrile] | 99
CC(C)(O)c1ccc(Nc2cc(N3CC[C@@](C#N)(C4CC4)C3=O)ccn2)nc1 [Example 3, (3S)-3-cyclopropyl-1-(2-((5-(2-hydroxypropan-2-yl)pyridin-2-yl)amino)pyridin-4-yl)-2-oxopyrrolidine-3-carbonitrile] | 99
CNC(=O)c1cc(Nc2cc(N3CC[C@@](C#N)(C4CC4)C3=O)ccn2)nn1C [Example 5, 3-((4-((3S)-3-cyano-3-cyclopropyl-2-oxopyrrolidin-1-yl)pyridin-2-yl)amino)-N,1-dimethyl-1H-pyrazole-5-carboxamide] | 101
CC(=O)Nc1ccnc(Nc2cc(N3CC[C@@](C#N)(C4CC4)C3=O)ccn2)c1 [Example 29, N-(2-((4-((3S)-3-cyano-3-cyclopropyl-2-oxopyrrolidin-1-yl)pyridin-2-yl)amino)pyridin-4-yl)acetamide] | 100
Cn1nc(Nc2cc(N3CC[C@@](C#N)(C4CC4)C3=O)ccn2)cc1N1CCOCC1 [Example 31, (3S)-3-cyclopropyl-1-(2-((1-methyl-5-(morpholin-4-yl)-1H-pyrazol-3-yl)amino)pyridin-4-yl)-2-oxopyrrolidine-3-carbonitrile] | 100
N#C[C@@]1(C2CC2)CCN(c2ccnc(Nc3cc(C(F)(F)F)ncn3)c2)C1=O [Example 43, (3S)-3-cyclopropyl-2-oxo-1-(2-((6-(trifluoromethyl)pyrimidin-4-yl)amino)pyridin-4-yl)pyrrolidine-3-carbonitrile] | 95
N#C[C@@]1(C2CC2)CCN(c2ccnc(Nc3cccnn3)c2)C1=O [Example 92, (3S)-3-cyclopropyl-2-oxo-1-(2-(pyridazin-3-ylamino)pyridin-4-yl)pyrrolidine-3-carbonitrile] | 96
CCC1(C#N)CCN(c2ccnc(Nc3ccc(N4CCOCC4)cn3)c2)C1=O (stereo not shown) [Example 126, 3-ethyl-1-(2-((5-(morpholin-4-yl)pyridin-2-yl)amino)pyridin-4-yl)-2-oxopyrrolidine-3-carbonitrile hydrochloride] | 72
N#CC1(C2CC2)CCN(c2ccnc(Nc3ccc(N4CCOCC4)cn3)c2)C1=O (stereo not shown) [Example 127, 3-cyclopropyl-1-(2-((5-(morpholin-4-yl)pyridin-2-yl)amino)pyridin-4-yl)-2-oxopyrrolidine-3-carbonitrile] | 83
